Results published in PubChem BioAssay (NCI).
Values joined by “and” are separate entries in the source; they are usually repeats but may differ in a detail not shown here. Identical values can stand only once.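 Protocol summary: plate cells (96-well), add compound at 5 concentrations, incubate 48 h, interpolate endpoints linearly. At the GI50, growth is halved. TGI denotes the concentration required for complete inhibition of growth.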

Assays:
Assay in all cases: NCI anticancer screen, dose series, 48 h
SNB-78 CNS = tested on: SNB-78 CNS
SR leukemia = tested on: SR leukemia
SK-OV-3 ovarian = tested on: SK-OV-3 ovarian
SK-MEL-2 melanoma = tested on: SK-MEL-2 melanoma
KM20L2 colon = tested on: KM20L2 colon
RXF 393 renal = tested on: RXF 393 renal
MDA-MB-231 breast = tested on: MDA-MB-231 breast
T-47D breast = tested on: T-47D breast

## C#Cc1ccccc1N1C(=O)C=CC1=O
SNB-78 CNS
  TGI: > 100 µM
SR leukemia
  TGI: > 100 µM
SK-OV-3 ovarian
  TGI: > 100 µM
SK-MEL-2 melanoma
  TGI: > 100 µM
KM20L2 colon
  TGI: > 100 µM

## ClCCCN1CCCCC1CCl (configuration not stated)
SR leukemia
  TGI: > 100 µM
RXF 393 renal
  TGI: > 100 µM
SK-OV-3 ovarian
  TGI: > 100 µM
SK-MEL-2 melanoma
  TGI: > 100 µM
KM20L2 colon
  TGI: > 100 µM

## Nc1ncnc2c1ncn2C1OC(C(=O)OCCO)C(O)C1O (configuration not stated)
MDA-MB-231 breast
  TGI: > 100 µM
SR leukemia
  TGI: > 100 µM
RXF 393 renal
  TGI: > 100 µM
SK-OV-3 ovarian
  TGI: > 100 µM
SK-MEL-2 melanoma
  TGI: > 100 µM
T-47D breast
  TGI: > 100 µM

## CN1CCN(Cc2ccc(NC(=O)c3cncc(C#Cc4ncc5ccccn45)c3)cc2C(F)(F)F)CC1
MDA-MB-231 breast
  GI50: 0.881 µM
  TGI: 5.92 µM
SR leukemia
  GI50: 0.511 µM
  TGI: 1.41 µM
RXF 393 renal
  GI50: 1.09 µM
  TGI: 3.73 µM
SK-OV-3 ovarian
  GI50: 1.33 µM
  TGI: 4.58 µM
SK-MEL-2 melanoma
  GI50: 0.876 µM
  TGI: 3.82 µM
T-47D breast
  GI50: 1.6 µM
  TGI: 6.76 µM

## CC(=O)N1c2ccc(-c3ccc(C(=O)O)cc3)cc2[C@H](Nc2ccc(Cl)cc2)C[C@@H]1C
MDA-MB-231 breast
  GI50: 1.19 µM
  TGI: > 100 µM
SR leukemia
  GI50: 0.0342 µM
  TGI: 18.7 µM
RXF 393 renal
  GI50: 5.41 µM
  TGI: 40.9 µM
SK-OV-3 ovarian
  GI50: 0.138 µM
  TGI: 22.5 µM
SK-MEL-2 melanoma
  GI50: 0.581 µM
  TGI: 14.3 µM
T-47D breast
  GI50: 0.108 µM
  TGI: 31 µM

## COc1ccc(-c2cc3c(N)ncnc3o2)cc1
MDA-MB-231 breast
  GI50: > 25 µM
  TGI: > 25 µM
SR leukemia
  GI50: > 25 µM
  TGI: > 25 µM
RXF 393 renal
  GI50: > 25 µM
  TGI: > 25 µM
SK-OV-3 ovarian
  GI50: > 25 µM
  TGI: > 25 µM
SK-MEL-2 melanoma
  GI50: > 25 µM
  TGI: > 25 µM
T-47D breast
  GI50: > 25 µM
  TGI: > 25 µM

## Nc1cc(N)c2nc(-c3ccccc3)c(Oc3ccc(Cl)c(Cl)c3)nc2c1
MDA-MB-231 breast
  GI50: 10.3 µM
  TGI: 26.2 µM
SR leukemia
  GI50: 3.36 µM
  TGI: 24.2 µM
RXF 393 renal
  GI50: 25.2 µM
  TGI: 85.4 µM
SK-OV-3 ovarian
  GI50: 23.9 µM
  TGI: 65.9 µM
SK-MEL-2 melanoma
  GI50: 5.63 µM
  TGI: 23.3 µM
T-47D breast
  GI50: 24.5 µM
  TGI: 79.1 µM

## CC(C)Cn1cnc2c(SCc3ccccn3)nc(N)nc21
MDA-MB-231 breast
  TGI: > 100 µM
SR leukemia
  TGI: > 100 µM
RXF 393 renal
  TGI: > 100 µM
SK-OV-3 ovarian
  TGI: > 100 µM
SK-MEL-2 melanoma
  TGI: > 100 µM
T-47D breast
  TGI: > 100 µM

## CCC(=O)Oc1ccc(/C=N/NC(N)=S)nc1
MDA-MB-231 breast
  GI50: 6.79 µM
  TGI: > 100 µM
SR leukemia
  GI50: 1.34 µM
  TGI: > 100 µM
RXF 393 renal
  GI50: 2.93 µM
  TGI: > 100 µM
SK-OV-3 ovarian
  GI50: 29.7 µM
  TGI: > 100 µM
SK-MEL-2 melanoma
  GI50: 33 µM
  TGI: > 100 µM
T-47D breast
  GI50: 5.83 µM
  TGI: > 100 µM

## CC1CC2(C)CC(=O)C1C1C(=O)N(CCN3CCOCC3)C(=O)C12 (configuration not stated)
MDA-MB-231 breast
  GI50: > 100 µM
  TGI: > 100 µM
SR leukemia
  GI50: > 100 µM
  TGI: > 100 µM
RXF 393 renal
  GI50: > 100 µM
  TGI: > 100 µM
SK-OV-3 ovarian
  GI50: > 100 µM
  TGI: > 100 µM
SK-MEL-2 melanoma
  GI50: > 100 µM
  TGI: > 100 µM
T-47D breast
  GI50: > 100 µM
  TGI: > 100 µM

## CCN1C(=O)N(CC)C2C1NN=c1s/c(=C\c3cnc(C)n3C)c(=O)n12 (configuration not stated)
MDA-MB-231 breast
  GI50: 2.5 µM
  TGI: 31.9 µM
SR leukemia
  GI50: 0.346 µM
  TGI: 19.1 µM
RXF 393 renal
  GI50: 1.2 µM
  TGI: 5.38 µM
SK-OV-3 ovarian
  GI50: 2.74 µM
  TGI: > 100 µM
SK-MEL-2 melanoma
  GI50: 1.85 µM
  TGI: 11.3 µM
T-47D breast
  GI50: 4.81 µM
  TGI: > 100 µM

## CC(C)CC1NC(=O)C(C(C)C)NC(=O)CC(C)COC(=O)C(CC(C)C)N(C)C(=O)C(C(C)C)NC(=O)C(C(C)C)OC1=O (configuration not stated)
MDA-MB-231 breast
  TGI: > 50 µM
SR leukemia
  TGI: > 50 µM
RXF 393 renal
  TGI: 35.2 µM
SK-OV-3 ovarian
  TGI: > 50 µM
SK-MEL-2 melanoma
  TGI: > 50 µM
T-47D breast
  TGI: > 50 µM

## NS(=O)(=O)c1ccc(N=Nc2c(=O)[nH]c3ccc4[nH]cccc4c23)cc1
MDA-MB-231 breast
  GI50: 0.885 µM
  TGI: > 7.89 µM
SR leukemia
  GI50: 0.147 µM
  TGI: 0.652 µM
RXF 393 renal
  GI50: 0.15 µM
  TGI: 0.449 µM
SK-OV-3 ovarian
  GI50: 1.25 µM
  TGI: > 25 µM
SK-MEL-2 melanoma
  GI50: 0.182 µM
  TGI: 0.696 µM
T-47D breast
  GI50: 0.48 µM
  TGI: 1.98 µM

## CCCC(CCC)C(=O)O
MDA-MB-231 breast
  GI50: > 100 µM
  TGI: > 20000 µM
SR leukemia
  GI50: > 100 µM
  TGI: > 20000 µM
RXF 393 renal
  GI50: > 100 µM
  TGI: > 100 µM and 14600 µM
SK-OV-3 ovarian
  GI50: > 20000 µM
  TGI: > 20000 µM
SK-MEL-2 melanoma
  GI50: > 100 µM
  TGI: > 20000 µM
T-47D breast
  GI50: > 100 µM
  TGI: > 20000 µM

## NCCNc1ncnc2ccc(Cl)cc12
MDA-MB-231 breast
  TGI: > 100 µM
SR leukemia
  TGI: > 100 µM
RXF 393 renal
  TGI: > 100 µM
SK-OV-3 ovarian
  TGI: > 100 µM
SK-MEL-2 melanoma
  TGI: > 100 µM
T-47D breast
  TGI: > 100 µM

## CN1C(=O)C(C)(C)Oc2c(-c3cn(C)c(=O)c4[nH]ccc34)cc(S(C)(=O)=O)cc21
MDA-MB-231 breast
  GI50: 0.664 µM
  TGI: > 100 µM
SR leukemia
  GI50: 0.469 µM
  TGI: > 100 µM
RXF 393 renal
  GI50: 1.59 µM
  TGI: 7.12 µM
SK-OV-3 ovarian
  GI50: 0.705 µM
  TGI: 7.04 µM
SK-MEL-2 melanoma
  GI50: 1.95 µM
  TGI: > 100 µM
T-47D breast
  GI50: 0.808 µM
  TGI: > 100 µM

## CC(=O)Nc1cc(CN2CCCCC2)c(O)c2ncccc12
MDA-MB-231 breast
  TGI: 55.6 µM
SR leukemia
  TGI: 37.5 µM
RXF 393 renal
  TGI: > 100 µM
SK-OV-3 ovarian
  TGI: > 100 µM
SK-MEL-2 melanoma
  TGI: 23 µM
T-47D breast
  TGI: > 100 µM

## C=CC(=O)Nc1cccc(Nc2nc(Nc3ccc(N4CCN(C(C)=O)CC4)cc3OC)ncc2C(F)(F)F)c1
MDA-MB-231 breast
  GI50: 4.47 µM and 4.02 µM
  TGI: > 10 µM and 20.6 µM
SR leukemia
  GI50: 3.37 µM and 1.45 µM
  TGI: 8.32 µM and > 45.3 µM
RXF 393 renal
  GI50: 2.83 µM and 2.17 µM
  TGI: > 10 µM and 10.1 µM
SK-OV-3 ovarian
  GI50: 0.211 µM and 0.291 µM
  TGI: 2.8 µM and 5.29 µM
SK-MEL-2 melanoma
  GI50: 2.04 µM and 2.23 µM
  TGI: 6.83 µM and 10.8 µM
T-47D breast
  GI50: 1.88 µM and 3.92 µM
  TGI: > 10 µM and 49.3 µM
